“Also recorded” adds a separate entry of the source.
Columns and labels:
[1] = test system: parkinsonian macaque model (MPP+); conditions: clinical; cited from earlier work
[2] = test system: parkinsonian macaque model (MPP+); assay: Parkinsonian symptoms in MPP+ macaques (PD score, locomotion, EMG tremor, motor skill, dyskinesia score); conditions: for dyskinesia-like behaviors (dyskinesia score): long-term treatment
Description: Parkinsonian conditions in macaque monkeys were established by unilaterally injecting 1-Methyl-4-phenylpyridinium (MPP+) into the SNc (FIG. 14). […] Drug injections were performed in five sites covering the whole SNc. A total volume of 10 ul MPP+ was injected into SNc at a speed of 50 nL/min. Monkeys were continuously monitored by veterinarians after lesion.
Two experienced observers blindly evaluated parkinsonian symptoms of the monkeys three days per week throughout the observation periods. Parkinsonian symptoms were quantified according to the well-established Kurlan scale (Part I. Parkinsonian features), a widely used scale to quantify PD symptoms in old world monkeys. A score of zero indicates a normal monkey, whereas a maximum score of 29 indicates an animal with severe PD symptoms. For separate behavioral categories, scoring of the upper limb and the lower limb were added together. Additionally, action or intention tremors and resting tremors were added together.
Two experienced observers blindly evaluated dyskinesia symptoms of the monkeys three days per week throughout the observation periods. Dyskinesia score criteria were: 0: Absent. 1: Mild, fleeting, present <30% of the observation period. 2: Moderate, not interfering with normal activity, present >30% of the observation period. 3: Marked, at times interfering with normal activity; present <70% of the observation period.4: Severe, continuous, replacing normal activity, present >70% of the observation.
For parkinsonian monkeys, DCZ (Deschloroclozapine, 0.3 mg/kg, MCE) was administered via intramuscular injection. After DCZ was successfully infused, monkeys were immediately transferred to the observation cage for video recording. […] For long-term DCZ treatment, parkinsonian monkeys were given DCZ at a dose of 0.3 mg/kg every other day via intramuscular injection. […] One month of washout was allowed before administration of DCZ for a 2 months treatment.
A grasp-to-eat/hand-to-mouth movement test was conducted as an indication of motor skills in monkeys. Monkeys were first trained to sit in a primate chair with the healthy hand restricted. Monkeys were then trained to grasp food (a piece of apple, ˜1 cm3) using the MPP+-affected hand from the experimenter. The task contained three blocks, with 20-minute intervals between different blocks. Each block included ten continuous trials. Trials were defined as successful when monkeys were able to bring food to their mouth within a minute.
During video recording, a top (x/y) and a side (x/z) camera were used to record the observation cage. The VigiePrimate system (Viewpoint) was used to analyze the subject's activity and extract movement data from the recorded videos. The tracking data were synchronously sampled at 25 Hz for both top view and side view, and then combined to generate one dataset representing the 3D space. The tracking data were normalized to 0-100 cm for all x-, y-, and z-axes, of which x represents right to left, y represents front to back, and z represents bottom to top.
Customized surface EMG electrodes were used for EMG recordings.

rM3Ds = molecular target: T1, rM3Ds (Rattus norvegicus, UniProt P08483, A177S/A238G/A489L/DEL261-437/DEL441-478/E258S/I253V/I483M/INS256[…]/K178L/K182A/K255R/K484R/K486H/L173F/L482A/M480V/R171S/R176Q/R179M/S481M/T174R/T181R/T257A/Y148C); assay: Electrophysiological recording in caudate/putamen of MPP+ lesioned macaques after CNO or DCZ; format: in vivo
T1 sequence (P08483 with tags, fused parts or gaps Y148C/R171S/L173F/T174R/R176Q/A177S/K178L/R179M/T181R/K182A/A238G/I253V/K255R/INS256[…]/T257A/E258S/DEL261-437/DEL441-478/M480V/S481M/L482A/I483M/K484R/K486H/A489L): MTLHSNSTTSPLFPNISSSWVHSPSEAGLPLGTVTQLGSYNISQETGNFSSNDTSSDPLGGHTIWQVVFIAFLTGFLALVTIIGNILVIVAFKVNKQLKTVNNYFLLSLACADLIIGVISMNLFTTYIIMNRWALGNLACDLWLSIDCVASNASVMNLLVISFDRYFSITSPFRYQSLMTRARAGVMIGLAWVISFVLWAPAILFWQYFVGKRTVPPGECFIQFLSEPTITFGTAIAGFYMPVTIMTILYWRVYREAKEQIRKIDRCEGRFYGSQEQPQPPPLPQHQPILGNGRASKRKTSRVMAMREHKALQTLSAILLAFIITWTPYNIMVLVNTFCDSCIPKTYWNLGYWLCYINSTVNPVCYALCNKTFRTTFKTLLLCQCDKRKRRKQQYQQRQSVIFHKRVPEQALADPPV
Description: Intriguingly, many of the symptoms were greatly reversed after systemic deschloroclozapine (DCZ) administration. DCZ is a potent brain-penetrable agonist for rM3Ds with reduced off-targeting binding compared to CNO, and was administered to activate the DREADD system in the macaque brain.
Electrophysiological recording was performed through a recording chamber while the monkey was anesthetized. Neural responses were recorded by a 16-channel linear probe (Plexon Inc, Uprobe) driven by a mechanical microdrive (Alpha Omega, FlexMT). Signals were passed through a head stage (Plexon Inc, HST/16V-G20 LN) and then split and filtered between 300 Hz and 5 kHz to identify spiking activity with an amplifier system (Plexon Inc, OmniPlex). Detected spikes were then sorted by commercially available software (Plexon Inc, Offline Sorter) for further analysis. To quantify the effect of CNO/DCZ injection, neural activity was recorded for 60 minutes following CNO/DCZ injection. The response time-course for each channel was obtained by counting the spikes within every 10-minute window and then normalizing to the maximal.
To determine the effect of CNO/DCZ injection on the direction of signal change, we performed Pearson correlation between neural responses and time using the ‘corr’ function in Matlab, which generates the correlation coefficient ‘r’ and significant level ‘p’. A neuron was considered to have “Increased” activity when r>0 and p<[…]; and considered to have “Decreased” activity when r<0 and p<0.05. Otherwise, neurons were considered to be “Unchanged” in their neural activities. The responses of all increased neurons were then averaged after being normalized by the maximal response (Crowe et al., 2014; Dai and Wang, 2018; Hirokawa et al., 2019) following CNO/DCZ injection, and then plotted as a function of time to generate the normalized population response.

[3] = Motor-related behaviors in naïve macaques after DCZ; format: in vivo; conditions: DCZ 0.3 mg/kg
Description: The locomotion tests for monkeys were conducted in a custom-made observation cage (100 cm×100 cm×100 cm). The top and front of the cage were made of toughened glass in order to gain a clear view for behavioral recording. Monkeys were habituated to the observation cage by placing them inside for 30 minutes on three separate days.

[4] = CSF concentration of DCZ by LC-MS; format: in vivo, macaques; conditions: 24 hours after drug infusion, 0.3 mg/kg i.m.
Description: One month of washout was allowed before administration of DCZ.

[5] = in vivo
[6] = test system: striatal D1 MSNs (striatonigral projection neurons); assay: Retrograde labeling of striatonigral projection neurons after AAV injection into the SNr; format: in vivo, mice
Description: To improve efficiency, multiple rounds of mutations of AAV capsids were performed on a series of different serotypes. Mutations were introduced at three sites in the AAV8 capsid protein to make AAV8R, including N385D, insertion of […] (SEQ ID NO: 31) at position 588, and TS711-712IN. Two additional mutations of V183E and N411S were incorporated into the AAV8R12 capsid protein (FIG. 1A). The labeling pattern of the AAV8R12 capsid and G88 promoter combination was determined.
First, the polypeptide fragment RGNLADODYTKTARQAATAD (SEQ ID NO.: 31) was inserted at the N587-R588 position; two other point mutations of the AAV2 Cap protein were made to develop rAAV2-retro. Similar mutations were then placed at equivalent positions for four other AAV serotypes (FIGS. 1A-IC and 25, TABLE 1), AAV1/5/6/8 (FIG. 1A). […] When administered into the SNr, 4.86±0.22 times EYFP positive MSNs in mice infected by AAV8R-hSyn-EYFP were observed as compared to those infected by rAAV2-retro-hSyn-EYFP (FIG. 2A-2C).
Baseline infectivity of rAAV2-retro was approximately 0.2±0.03×10^4 cells per striatal hemisphere (using a hSyn promoter) (TABLE 2). […] Compared to the current standard retrograde AAV, rAAV2-retro, AAV8R12 labeled 7.72±0.78-times more MSNs after nigral delivery (FIG. 2B-2C, TABLE 1). […] The AAV8R12 was generated using the AAV8R plasmid as a template.
Mice were anesthetized with sodium pentobarbital (Nembutal; 80 mg/kg, i.p.), and then placed into a stereotaxic device (KOPF). Eye cream was applied on both corneas to avoid dehydration. The skull above the targeted areas was thinned with a dental drill and carefully removed. Injections were conducted with a 10 μL syringe connected to a 33-Gauge needle (Neuros; Hamilton), using a microsyringe pump (Legato 130, KD Scientific). A total volume of 200 nL virus was injected into the SNr at a speed of 20 nL/min. The coordinates for the SNr were 3.4 mm posterior, 1.3 mm lateral, 4.8 mm ventral to the bregma.
HEK293T cells (ATCC) were co-transfected by calcium phosphate with an AAV vector plasmid, an AAV Rep-Cap plasmid (rAAV2-retro, AAV1R, AAV5R, AAV6R, AAV8R, and AAV8R1-14), and the pAdDeltaF6 helper plasmid (Addgene, 112867) harboring the adenoviral genes required for the AAV life cycle. HEK293T cells grown in 15 cm cell culture dishes were co-transfected with the mixture of three plasmids (1:1:1) at 80% confluency. 48-72 hours post-transfection, cells were collected and resuspended in a buffer containing 150 mM NaCl and 100 mM Tris-HCl (pH 8.0). Cells were lysed by repeated freeze-thaw cycles in liquid nitrogen and a 37° C. water bath. AAV particles were purified and concentrated using Millipore Amicon 100K columns (Merck Millipore, UFC910008). Encapsidated viral DNA was quantitated by qPCR (Thermo Fisher) with primers recognizing the viral WPRE and/or ITR sequences following denaturation of the AAV particles using Proteinase K. Titers were calculated as genome copies per milliliter.
Images were acquired using a confocal microscope (Carl Zeiss, LSM880) and an Axiolmager.Z1 microscope with apotome (Carl Zeiss). Brain structures were identified microscopically and in digital photos using a mouse brain atlas. To analyze the number of EYFP+ cells in the striatum, slices from rostral to caudal striatum were used. Every sixth section was analyzed, and numbers of EYFP+ cells were multiplied by six to acquire the approximate total number and mean number of cells per animal. Images were processed using ImageJ (NIH, USA), and final quantifications were independently performed manually by two blinded experimenters.

[7] = test system: MSNs in nucleus accumbens; assay: Retrograde labeling of accumbal MSNs after delivery into ventral pallidum or lateral hypothalamus; format: in vivo, mice
[8] = caudate/putamen, CNO 36 cells, DCZ 31 cells

N[C@@H](Cc1ccc(O)c(O)c1)C(=O)O [L-Dopa, levodopa]
standard efficacy window [1]: 6 h | dyskinesia-like behaviors (dyskinesia score) [2]: evident; also recorded: pronounced | effect of 4 months prior L-Dopa administration on DCZ treatment ([2]; one month washout): did not affect the efficacy of DCZ treatment or the absence of dyskinesia

CN1CCN(C2=Nc3ccccc3Nc3ccccc32)CC1 [DCZ, deschloroclozapine]
neuronal activity in MPP+ lesioned macaques, in words (rM3Ds; anesthetized animals): induced an increase in neuronal activity | cells activated (FIG. 15G) (rM3Ds; [8]): 41.9% | cells inactivated (FIG. 15G) (rM3Ds; [8]): 9.7% | cells unchanged (FIG. 15G) (rM3Ds; [8]): 48.4% | motor-related behaviors in naïve monkeys [3]: did not alter motor-related behaviors; also recorded: doesn't alter motor-related behaviors | DCZ level in cerebrospinal fluid [4]: no detectable levels | blood levels of common liver- and kidney-related factors [5]: remained stable | motor skills (hand to mouth movement) ([2]; DCZ treatment): significant recovery of motor skills; also recorded: partially restored | spontaneous movement/motor deficits in an observation cage ([2]; DCZ treatment): increase in spontaneous movement; also recorded: successfully rescue motor deficits | tremor (EMG) ([2]; DCZ treatment): great reduced or even eliminated; also recorded: removed | duration of effect ([2]; FIG. 18C): over 24 hr | alleviation of parkinsonian symptoms over long-term treatment ([2]; continuous DCZ): consistent during an 8-month continuous treatment | speed of reversal of symptoms ([2]; initial phase of drug administration): faster reversal of symptoms than levodopa; also recorded: faster than L-Dopa | dyskinesia-like behaviors (dyskinesia score) [2]: dyskinesia-free; also recorded: did not elicit dyskinesia-like behaviors; also recorded: dyskinesia free | alleviating symptoms after drug administration ([2]; single dose after steady-state efficacy): at least 24 hours

B1: AAV8R12: AAV8R capsid mutant V183E + N411S, SEQ ID NO: 13 (protein)
chain: MAADGYLPDWLEDNLSEGIREWWALKPGAPKPKANQQKQDDGRGLVLPGYKYLGPFNGLDKGEPVNAADAAALEHDKAYDQQLQAGDNPYLRYNHADAEFQERLQEDTSFGGNLGRAVFQAKKRVLEPLGLVEEGAKTAPGKKRPVEPSPQRSPDSSTGIGKKGQQPARKRLNFGQTGDSESEPDPQPLGEPPAAPSGVGPNTMAAGGGAPMADNNEGADGVGSSSGNWHCDSTWLGDRVITTSTRTWALPTYNNHLYKQISNGTSGGATNDNTYFGYSTPWGYFDFNRFHCHFSPRDWQRLINNNWGFRPKRLSFKLFNIQVKEVTQNEGTKTIANNLTSTIQVFTDSEYQLPYVLGSAHQGCLPPFPADVFMIPQYGYLTLNDGSQAVGRSSFYCLEYFPSQMLRTGNSFQFTYTFEDVPFHSSYAHSQSLDRLMNPLIDQYLYYLSRTQTTGGTANTQTLGFSQGGPNTMANQAKNWLPGPCYRQQRVSTTTGQNNNSNFAWTAGTKYHLNGRNSLANPGIAMATHKDDEERFFPSNGILIFGKQNAARDNADYSDVMLTSEEEIKTTNPVATEEYGIVADNLQRGNLADQDYTKTARQAATADVNSQGALPGMVWQNRDVYLQGPIWAKIPHTDGNFHPSPLMGGFGLKHPPPQILIKNTPVPADPPTTFNQSKLNSFITQYSTGQVSVEIEWELQKENSKRWNPEIQYTSNYYKSINVDFAVNTEGVYSEPRPIGTRYLTRN
Labeling Efficiency in Striatonigral Pathway ([6]; AAV8R capsid mutants, numbers of labeled neurons per animal): +++ (10 k-25 k) | Mean ([6]; Table 2, AAVs with capsid and promoter, labeled cells per striatal hemisphere after nigral delivery): 16026 | retrograde labeling/infectivity of striatal projection neurons (D1 MSNs), in words ([6]; injection into the SNr): mostly improved efficiency | labeled striatonigral projection neurons (FIG. 2C) ([6]; mean±SEM, n=3 mice, viruses injected into the SNr): 16026±1654 | times more EYFP positive/labeled MSNs compared to rAAV2-retro ([6]; nigral delivery, hSyn-EYFP): 7.72±0.78 times | labeling of MSNs in nucleus accumbens [7]: robust labeling
